The data set in a line: Human HepG2 cell viability assay in 384 well format. It is filed as toxicity, cell-based. To be noted: HepG2 cells, read-out: Inhibition. Details: dose 125 nL, time 70.5 hour; concentration not given beside the values.

For `CCc1n[nH]c(C2CN(C(=O)Cc3cccs3)CCO2)n1` (stereo not given), the cytotoxicity at 70.5 h was found to be 25.1%. The same measure for `CC(=O)N(Cc1noc(C)n1)C1CCN(Cc2cccc(C#N)c2)C1` (stereo not given): 30.1%; for `Cc1csc(C2CCCCN2C(=O)CN(C)C(C)C)n1` (stereo not given): 25.2%; for `CC(C)(C)c1ncc(CNCC2CCCN2c2cccnn2)s1` (stereo not given): 5.55%.

On to `CCN(CC)CC(=O)N1CCCCC1c1nc(C)cs1` (stereo not given), for which the cytotoxicity at 70.5 h is -2.06%.

For `CSc1ccc(C)c(C(=O)N2CCCC(n3cncn3)C2)c1` (stereo not given), the cytotoxicity at 70.5 h was -2.61%.

In the case of `OCC1CCCN1c1cc(NCc2cccs2)ncn1` (stereo not given), the cytotoxicity at 70.5 h was determined as 17.3%. Consider `FC(F)CN1CCOC(Cn2cccn2)C1` (stereo not given), for which the cytotoxicity at 70.5 h is -3.37%. The same measure for `COc1ccc(C(C)NC(=O)Cn2ccc(=O)n(C)c2=O)cc1F` (stereo not given): -2.29%; for `CC(NC(=O)Cn1ccc(=O)n(C)c1=O)c1cc(F)ccc1F` (stereo not given): -1.78%. The same measure for `CN(C)c1cc(CNC(=O)Nc2nccs2)ccn1`: -1.57%.

In the case of `COc1cc(CNC(=O)Nc2nnc(C(C)C)s2)ccn1`, the cytotoxicity at 70.5 h came out at 1.23%. The same measure for `CN(C)c1cc(CNC(=O)Nc2nnc(C3CC3)s2)ccn1`: 1.07%.

On to `CN(C)c1cc(CNC(=O)Nc2nncs2)ccn1`, for which the cytotoxicity at 70.5 h is -0.639%. The same measure for `Cc1nn(C)c(N(C)C)c1CNCc1ccc(C(=O)N(C)C)cc1`: 4.69%. The same measure for `O=C(Cc1cn2ccccc2n1)N1CCCC(n2cccn2)C1` (stereo not given): 23.8%.

With `Cc1cc(C)n(C2CCCN(C(=O)c3cc(C(N)=O)cs3)C2)n1` (stereo not given), the cytotoxicity at 70.5 h was 0.983%. The same measure for `Cc1cc(C(=O)N2CCCC(n3ccnc3)C2)c(C)n1C1CC1` (stereo not given): 1.06%; for `Cc1nn(C)c(C)c1C1CCCN1Cc1nc(N)c2ccccc2n1` (stereo not given): -2.07%; for `Cc1nn(C)c(C)c1C1CCCN1Cc1nc2ccccc2c(=O)[nH]1` (stereo not given): -0.414%. The same measure for `Cc1ccc(S(C)(=O)=O)cc1C(=O)N1CCCC(n2cncn2)C1` (stereo not given): -3.44%.

For the compound `COc1ccc(C)cc1C(=O)N1CCCC(n2cncn2)C1` (stereo not given), the cytotoxicity at 70.5 h was -3.25%.

With `CC(C)c1n[nH]c(C2CN(CCc3cccs3)CCO2)n1` (stereo not given), the cytotoxicity at 70.5 h was -6.41%.

For `CC(=O)N(Cc1ncc(C)o1)C1CCN(Cc2ccccc2C#N)C1` (stereo not given), the cytotoxicity at 70.5 h was -3.02%. On to `Cc1nn(C)c(C)c1C1CCCN1Cc1nc2ccccc2n1C` (stereo not given), for which the cytotoxicity at 70.5 h was 0.883%. The same measure for `Cc1nccc(CNc2cc(N3CCCC3CO)ncn2)n1` (stereo not given): 2.68%. As to `Cc1cnn(CC2CCCN2Cc2nccn2CC(F)(F)F)c1` (stereo not given), the cytotoxicity at 70.5 h was found to be 0.0433%. The same measure for `CCN1CCC(NC(=O)CN2CCc3c(ncn3C3CC3)C2)CC1`: -9.11%. The same measure for `Cc1ccc(N2CCCC(NCc3c(C)noc3C)C2)nn1` (stereo not given): -8.52%; for `Cc1ccc(S(=O)(=O)NCc2cccc(C(=O)N3CCCC3)c2)cc1F`: -7.96%. The same measure for `Cn1ccc(CN2CCC(CN3CCOCC3)CC2)cc1=O`: -7.39%; for `O=C(c1cn(-c2ccc(F)cc2)nn1)N1CCCC(n2cccn2)C1` (stereo not given): -1.26%; for `CCN(CC)C(=O)NCCc1ccn(-c2ccccc2)n1`: 11%. Turning to `CCc1nc(CN2CCN(C(C)c3nc(C4CC4)no3)CC2)no1` (stereo not given), the cytotoxicity at 70.5 h was -10.3%. In the case of `CC(C)(C)C(=O)NCCC(=O)NCCc1ccn(-c2ccccc2)n1`, the cytotoxicity at 70.5 h is -4.33%. The same measure for `O=C(CN1CCc2c(ncn2C2CC2)C1)NC1CCN(C2CC2)CC1`: 16.5%; for `Cc1cc(C)n(C2CCCN(C(=O)CCOc3cccc(F)c3)C2)n1` (stereo not given): -2.12%; for `CCn1ccnc1CN1CCCN(C(=O)c2cnc(C)cn2)CC1`: -5.42%. The same measure for `CC(C)c1noc(C(C)N2CCN(Cc3noc(C(C)(C)C)n3)CC2)n1` (stereo not given): -3.35%; for `Cn1ccc(CN2CCN(CC3CC3)CC2)cc1=O`: 21.6%.

The values are drawn from ChEMBL document CHEMBL3507680, “University of Dundee, Gates Library screen for HepG2 cell viability”.
